# How the values were obtained:
# S. aureus (MSSA) = test: β-D-ribosidase substrates in Columbia agar, colored or fluorescent colonies; type: cell-based, Staphylococcus aureus
# Method: (§1) The media hereinafter were prepared in 200 ml of a Columbia agar base (Oxoid), in combination with the chromogenic β-D-ribosidase substrates. The various substrates and also the concentrations and the additives used in the media are described in Table 1 below:
# (§2) The β-D-ribosidase substrates are solubilized in DMSO and added to the media so as to obtain the concentrations indicated in Table 1.
# (§3) 191 bacterial strains were inoculated onto each of the media using a suspension at 0.5 MacFarland diluted to 1/1000. The dishes were incubated at 37° C. and then read.
# (§4) The media were distributed into Petri dishes, then inoculated with approximately 100 000 CFU, then incubated at 37° C. for 48 h. The colonies formed were examined visually after incubation times of 18, 24 and 48 hours.
# (§5) The stock collection of 191 strains comprised: […], 48 Staphylococcus spp, 61 Enterococcus spp and 3 alpha-hemolytic Streptococcus.
# S. aureus (MRSA) = test: as above; type: cell-based, Staphylococcus aureus
# Method: as §1, §2, §3, §4, §5
# S aureus (MRSA and MSSA) = test: Catechol-β-D-riboside and X-β-D-riboside on a broad panel of Staphylococcus spp; type: cell-based; settings: modified Chapman medium without NaCl, 60 mg/l substrate
# Method: (§6) Catechol-β-D-riboside: A GTS medium (bioMérieux) supplemented with 300 mg/l of catechol-β-D-riboside, then autoclaved, and with 500 mg/l of ammoniacal iron citrate was used and distributed into Petri dishes 55 mm in diameter.
# (§7) X-β-D-riboside: A modified Chapman medium, without NaCl, autoclaved and supplemented with 60 mg/l of X-β-D-riboside, was used and distributed into Petri dishes 55 mm in diameter.
# For the two media, the inoculation was carried out using precultures prepared for 24 h at 37° C. A suspension in physiological saline at 0.5 McF was prepared and then each strain was inoculated onto a dish using a 10 μl calibrated loop. […]
# (§8) In total, […] were tested: 34 S. aureus, including 25 MRSAs, and 46 other species of Staphylococcus (including S. schleiferi; S. capitis; S. hyicus; S. intermedius; S. haemolyticus; S. auricularis; S. hominis; S. warneri; S. chromogenes; S. cohnii; S. epidermidis; S. sciuri; S. xylosus; S. saprophyticus).
# [1] = test system: Alpha-hemolytic streptococci; test: β-D-ribosidase substrates in Columbia agar, colored or fluorescent colonies; type: cell-based, alpha-hemolytic Streptococcus
# Method: as §1, §2, §3, §4, §5
# Enterococci = test: as above; type: cell-based, Enterococcus spp
# Method: as §1, §2, §3, §4, §5
# Micrococcus luteus = test: as above; type: cell-based
# Method: [The procedure below names another organism; the source lists this organism under the same test.] as §1, §2, §3, §4, §5
# [2] = test system: Coagulase-negative Staphylococci; test: as above; type: cell-based, Staphylococcus spp; settings: for % of strains producing colored or fluorescent colonies: Coagulase-negative Staphylococci
# Method: as §1, §2, §3, §4, §5
# Coag neg = test: Catechol-β-D-riboside and X-β-D-riboside on a broad panel of Staphylococcus spp; type: cell-based; settings: modified Chapman medium without NaCl, 60 mg/l substrate
# Method: as §6, §7
# For the two media, the inoculation was carried out using precultures prepared for 24 h at 37° C. A suspension in physiological saline at 0.5 McF was prepared and then each strain was inoculated onto a dish using a 10 μl calibrated loop.
# The readings were carried out after 24 and 48 hours of incubation at 37° C.
# as §8
substance,measurement,setting,value
5-Bromo-4-chloro-3-indoxyl-beta-D-riboside [X-β-riboside],% of strains producing colored or fluorescent colonies,"S. aureus (MSSA); 80 mg/L, 18 h",64%
same,% of strains producing colored or fluorescent colonies,"S. aureus (MSSA); 80 mg/L, 24 h",100%
same,% of strains producing colored or fluorescent colonies,"S. aureus (MSSA); 80 mg/L, 48 h",100%
same,% of strains producing colored or fluorescent colonies,"S. aureus (MSSA); 200 mg/L, 18 h",64%
same,% of strains producing colored or fluorescent colonies,"S. aureus (MSSA); 200 mg/L, 24 h",64%
same,% of strains producing colored or fluorescent colonies,"S. aureus (MSSA); 200 mg/L, 48 h",100%
same,% of strains producing colored or fluorescent colonies,"S. aureus (MRSA); 80 mg/L, 18 h",84%
same,% of strains producing colored or fluorescent colonies,"S. aureus (MRSA); 80 mg/L, 24 h",92%
same,% of strains producing colored or fluorescent colonies,"S. aureus (MRSA); 80 mg/L, 48 h",97%
same,% of strains producing colored or fluorescent colonies,"S. aureus (MRSA); 200 mg/L, 18 h",82%
same,% of strains producing colored or fluorescent colonies,"S. aureus (MRSA); 200 mg/L, 24 h",87%
same,% of strains producing colored or fluorescent colonies,"S. aureus (MRSA); 200 mg/L, 48 h",95%
same,"Number of strains producing a coloration/total number of strains, positive at 18 h",S aureus (MRSA and MSSA); 18 h,17/34
same,"Number of strains producing a coloration/total number of strains, positive at 24 h",S aureus (MRSA and MSSA); 24 h,29/34
same,"Number of strains producing a coloration/total number of strains, positive at 48 h",S aureus (MRSA and MSSA); 48 h,33/34
same,% of strains producing colored or fluorescent colonies,"[1]; 80 mg/L, 18 h",0%
same,% of strains producing colored or fluorescent colonies,"[1]; 80 mg/L, 24 h",0%
same,% of strains producing colored or fluorescent colonies,"[1]; 80 mg/L, 48 h",0%
same,% of strains producing colored or fluorescent colonies,"[1]; 200 mg/L, 18 h",0%
same,% of strains producing colored or fluorescent colonies,"[1]; 200 mg/L, 24 h",0%
same,% of strains producing colored or fluorescent colonies,"[1]; 200 mg/L, 48 h",0%
same,% of strains producing colored or fluorescent colonies,"Enterococci; 80 mg/L, 18 h",2%
same,% of strains producing colored or fluorescent colonies,"Enterococci; 80 mg/L, 24 h",2%
same,% of strains producing colored or fluorescent colonies,"Enterococci; 80 mg/L, 48 h",2%
same,% of strains producing colored or fluorescent colonies,"Enterococci; 200 mg/L, 18 h",2%
same,% of strains producing colored or fluorescent colonies,"Enterococci; 200 mg/L, 24 h",2%
same,% of strains producing colored or fluorescent colonies,"Enterococci; 200 mg/L, 48 h",2%
same,% of strains producing colored or fluorescent colonies,"Micrococcus luteus; 80 mg/L, 18 h",0%
same,% of strains producing colored or fluorescent colonies,"Micrococcus luteus; 80 mg/L, 24 h",0%
same,% of strains producing colored or fluorescent colonies,"Micrococcus luteus; 80 mg/L, 48 h",0%
same,% of strains producing colored or fluorescent colonies,"Micrococcus luteus; 200 mg/L, 18 h",0%
same,% of strains producing colored or fluorescent colonies,"Micrococcus luteus; 200 mg/L, 24 h",0%
same,% of strains producing colored or fluorescent colonies,"Micrococcus luteus; 200 mg/L, 48 h",0%
same,% of strains producing colored or fluorescent colonies,"[2]; 80 mg/L, 18 h",3%
same,% of strains producing colored or fluorescent colonies,"[2]; 80 mg/L, 24 h",6%
same,% of strains producing colored or fluorescent colonies,"[2]; 80 mg/L, 48 h",6%
same,% of strains producing colored or fluorescent colonies,"[2]; 200 mg/L, 18 h",3%
same,% of strains producing colored or fluorescent colonies,"[2]; 200 mg/L, 24 h",3%
same,% of strains producing colored or fluorescent colonies,"[2]; 200 mg/L, 48 h",3%
same,false positives among the coagulase-negative staphylococci,"[2]; Columbia agar, 24 h of incubation, concentration not given",3%
same,"Number of strains producing a coloration/total number of strains, positive at 18 h",Coag neg; 18 h,7/46
same,"Number of strains producing a coloration/total number of strains, positive at 24 h",Coag neg; 24 h,12/46
same,"Number of strains producing a coloration/total number of strains, positive at 48 h",Coag neg; 48 h,14/46
5-Bromo-6-chloro-3-indoxyl-beta-D-riboside [Magenta-β-riboside],% of strains producing colored or fluorescent colonies,"S. aureus (MSSA); 100 mg/L, 18 h",64%
same,% of strains producing colored or fluorescent colonies,"S. aureus (MSSA); 100 mg/L, 24 h",64%
same,% of strains producing colored or fluorescent colonies,"S. aureus (MSSA); 100 mg/L, 48 h",100%
same,% of strains producing colored or fluorescent colonies,"S. aureus (MRSA); 100 mg/L, 18 h",71%
same,% of strains producing colored or fluorescent colonies,"S. aureus (MRSA); 100 mg/L, 24 h",85%
same,% of strains producing colored or fluorescent colonies,"S. aureus (MRSA); 100 mg/L, 48 h",95%
same,% of strains producing colored or fluorescent colonies,"[1]; 100 mg/L, 18 h",0%
same,% of strains producing colored or fluorescent colonies,"[1]; 100 mg/L, 24 h",0%
same,% of strains producing colored or fluorescent colonies,"[1]; 100 mg/L, 48 h",0%
same,% of strains producing colored or fluorescent colonies,"Enterococci; 100 mg/L, 18 h",0%
same,% of strains producing colored or fluorescent colonies,"Enterococci; 100 mg/L, 24 h",2%
same,% of strains producing colored or fluorescent colonies,"Enterococci; 100 mg/L, 48 h",2%
same,% of strains producing colored or fluorescent colonies,"Micrococcus luteus; 100 mg/L, 18 h",0%
same,% of strains producing colored or fluorescent colonies,"Micrococcus luteus; 100 mg/L, 24 h",0%
same,% of strains producing colored or fluorescent colonies,"Micrococcus luteus; 100 mg/L, 48 h",0%
same,% of strains producing colored or fluorescent colonies,"[2]; 100 mg/L, 18 h",0%
same,% of strains producing colored or fluorescent colonies,"[2]; 100 mg/L, 24 h",3%
same,% of strains producing colored or fluorescent colonies,"[2]; 100 mg/L, 48 h",6%
